The values below come from ChEMBL document CHEMBL1909046, “DrugMatrix in vitro pharmacology data”.

In experiment [1] the target is T1, B2 bradykinin receptor (Homo sapiens, UniProt P30411). Also: in other assays of this panel Not Active means under 50% inhibition at 10 µM.
T1 sequence (P30411 whole entry): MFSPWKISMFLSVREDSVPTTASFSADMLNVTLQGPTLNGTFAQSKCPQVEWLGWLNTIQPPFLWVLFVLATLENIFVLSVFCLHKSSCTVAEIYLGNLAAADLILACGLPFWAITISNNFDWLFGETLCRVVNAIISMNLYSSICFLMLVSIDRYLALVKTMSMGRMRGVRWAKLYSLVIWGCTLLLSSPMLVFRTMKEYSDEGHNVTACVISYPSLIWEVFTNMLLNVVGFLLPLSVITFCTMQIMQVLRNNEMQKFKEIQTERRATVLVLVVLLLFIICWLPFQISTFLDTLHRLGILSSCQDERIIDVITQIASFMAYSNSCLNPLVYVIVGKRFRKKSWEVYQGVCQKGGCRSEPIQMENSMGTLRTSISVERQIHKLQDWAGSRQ
It counts as cell membranes, Membrane. Conditions: chem-1.

Experiment [2] addresses T2, Caspase-1 (Homo sapiens, UniProt P29466).
T2 sequence (P29466 whole entry): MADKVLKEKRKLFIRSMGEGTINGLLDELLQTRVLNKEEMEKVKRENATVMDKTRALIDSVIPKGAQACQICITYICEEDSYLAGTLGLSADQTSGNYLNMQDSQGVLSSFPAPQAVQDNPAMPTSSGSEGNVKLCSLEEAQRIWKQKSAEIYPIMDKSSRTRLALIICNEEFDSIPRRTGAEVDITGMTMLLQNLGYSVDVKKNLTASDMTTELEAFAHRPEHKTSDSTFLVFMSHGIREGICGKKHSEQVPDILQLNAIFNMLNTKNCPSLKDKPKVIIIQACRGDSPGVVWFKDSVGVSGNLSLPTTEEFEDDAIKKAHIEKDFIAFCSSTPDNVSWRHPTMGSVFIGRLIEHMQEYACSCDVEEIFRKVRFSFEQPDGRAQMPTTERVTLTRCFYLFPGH
Details: species or system Escherichia coli.

In experiment [3] the target is T3, C-C chemokine receptor type 4 (Homo sapiens, UniProt P51679). Also: in other assays of this panel Not Active means under 50% inhibition at 10 µM.
T3 sequence (P51679 whole entry): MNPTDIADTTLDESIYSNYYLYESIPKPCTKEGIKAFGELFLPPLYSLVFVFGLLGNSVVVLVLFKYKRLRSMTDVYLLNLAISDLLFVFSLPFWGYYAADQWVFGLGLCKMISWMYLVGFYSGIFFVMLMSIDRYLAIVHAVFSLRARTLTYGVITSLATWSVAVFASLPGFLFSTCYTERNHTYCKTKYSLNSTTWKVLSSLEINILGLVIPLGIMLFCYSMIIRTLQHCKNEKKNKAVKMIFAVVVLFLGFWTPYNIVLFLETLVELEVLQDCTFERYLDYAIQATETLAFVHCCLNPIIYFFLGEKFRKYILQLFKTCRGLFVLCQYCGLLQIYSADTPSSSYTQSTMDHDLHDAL
It counts as cell membranes, Chem-1, Membrane. To be noted: chem-1.

A short description of experiment [4]: DRUGMATRIX: Glutamate, AMPA radioligand binding (ligand: [3H] AMPA). Type of experiment: cell membranes, Rattus norvegicus, Wistar, Cerebral cortex, Membrane. Conditions: Not Active = under 50% inhibition at 10 µM.
Experiment [5] addresses Delta-type opioid receptor (Homo sapiens, UniProt P41143). Type of experiment: cell membranes, HEK293, Membrane. Conditions: hek293.
Experiment [6] deals with Receptor tyrosine-protein kinase erbB-2 (Homo sapiens, UniProt P04626). Type of experiment: cell-based. Conditions: insect cells.
Sequence of Receptor tyrosine-protein kinase erbB-2 (P04626 whole entry): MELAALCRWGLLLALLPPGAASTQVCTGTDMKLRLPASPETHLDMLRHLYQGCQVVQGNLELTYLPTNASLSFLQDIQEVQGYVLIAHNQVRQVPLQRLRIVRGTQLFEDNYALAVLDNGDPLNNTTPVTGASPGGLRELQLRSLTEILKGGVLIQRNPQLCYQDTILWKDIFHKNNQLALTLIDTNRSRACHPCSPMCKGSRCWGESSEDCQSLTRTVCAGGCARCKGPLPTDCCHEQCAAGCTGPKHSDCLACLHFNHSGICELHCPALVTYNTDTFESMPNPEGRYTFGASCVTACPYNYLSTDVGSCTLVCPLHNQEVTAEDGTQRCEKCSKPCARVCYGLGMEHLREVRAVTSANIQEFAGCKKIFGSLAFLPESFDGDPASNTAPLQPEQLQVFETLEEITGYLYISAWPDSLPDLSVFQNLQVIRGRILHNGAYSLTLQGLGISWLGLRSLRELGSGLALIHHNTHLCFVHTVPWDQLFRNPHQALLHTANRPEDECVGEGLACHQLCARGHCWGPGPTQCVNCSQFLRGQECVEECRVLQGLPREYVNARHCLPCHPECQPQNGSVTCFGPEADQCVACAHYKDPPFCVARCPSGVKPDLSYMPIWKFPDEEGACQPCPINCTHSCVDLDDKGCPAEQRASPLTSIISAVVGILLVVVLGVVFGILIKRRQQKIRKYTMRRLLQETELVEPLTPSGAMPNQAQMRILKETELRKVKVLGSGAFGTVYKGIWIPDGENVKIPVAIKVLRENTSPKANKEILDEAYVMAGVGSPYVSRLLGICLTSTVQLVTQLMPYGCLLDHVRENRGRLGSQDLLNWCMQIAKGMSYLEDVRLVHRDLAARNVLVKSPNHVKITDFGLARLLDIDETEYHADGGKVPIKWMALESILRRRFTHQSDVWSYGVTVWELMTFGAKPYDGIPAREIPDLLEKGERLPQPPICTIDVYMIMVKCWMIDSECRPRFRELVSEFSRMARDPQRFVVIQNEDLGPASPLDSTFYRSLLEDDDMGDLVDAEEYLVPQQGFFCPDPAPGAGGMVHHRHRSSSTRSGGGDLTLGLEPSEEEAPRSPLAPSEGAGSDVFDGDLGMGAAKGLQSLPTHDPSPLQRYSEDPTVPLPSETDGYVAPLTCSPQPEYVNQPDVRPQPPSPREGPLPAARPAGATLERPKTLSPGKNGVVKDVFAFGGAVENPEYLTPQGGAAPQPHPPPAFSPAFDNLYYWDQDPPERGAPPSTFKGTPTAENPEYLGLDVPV
Experiment [7] can be described thus: DRUGMATRIX: Potassium Channel [KATP] radioligand binding (ligand: [3H] Glyburide). Conditions: hit-t15; Not Active = under 50% inhibition at 10 µM. Type of experiment: cell membranes, Membrane.
A short description of experiment [8]: DRUGMATRIX: Phorbol Ester radioligand binding (ligand: [3H] PDBu). It counts as cell membranes, Mus musculus, ICR, Brain, Membrane. Conditions: Not Active = under 50% inhibition at 10 µM.

Sequence of Delta-type opioid receptor (P41143 whole entry): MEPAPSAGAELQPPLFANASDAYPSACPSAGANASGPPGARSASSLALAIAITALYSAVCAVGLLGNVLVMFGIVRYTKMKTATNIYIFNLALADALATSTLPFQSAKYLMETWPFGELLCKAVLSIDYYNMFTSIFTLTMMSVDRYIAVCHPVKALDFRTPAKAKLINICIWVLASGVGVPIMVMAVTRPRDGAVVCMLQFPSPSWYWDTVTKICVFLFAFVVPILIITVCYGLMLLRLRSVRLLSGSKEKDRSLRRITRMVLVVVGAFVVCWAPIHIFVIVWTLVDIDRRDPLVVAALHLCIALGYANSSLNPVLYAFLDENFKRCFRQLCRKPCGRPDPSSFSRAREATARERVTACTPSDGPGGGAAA

By IC50 is commonly meant the point on the concentration scale where inhibition reaches its midpoint. As to `CCC(C)(C)C(=O)O[C@H]1C[C@@H](C)C=C2C=C[C@H](C)[C@H](CC[C@@H]3C[C@@H](O)CC(=O)O3)[C@H]21` [SIMVASTATIN], the IC50 result in experiment [1], in experiment [2], in experiment [3], in experiment [4], in experiment [5] and in experiment [6] was “Not Active” throughout. Further, the IC50 entry in experiment [7] and in experiment [8] was “Not Active” in each case. For the same compound, the Ki entry in experiment [4], in experiment [7] and in experiment [8] was “Not Active” in each case.
Consider `O=[As][O-].[Na+]` [SODIUM ARSENITE], for which the IC50 result in experiment [1], in experiment [2], in experiment [3], in experiment [4], in experiment [5] and in experiment [6] was “Not Active” each time. The IC50 result in experiment [7] and in experiment [8] was “Not Active” each time. Besides, the Ki entry in experiment [4], in experiment [7] and in experiment [8] was “Not Active” throughout.
`C1CCN2C[C@@H]3C[C@@H](CN4CCCC[C@@H]34)[C@H]2C1` [SPARTEINE]: the IC50 entry in experiment [1], in experiment [2], in experiment [3], in experiment [4], in experiment [5] and in experiment [6] was “Not Active” in each case. The IC50 entry in experiment [7] and in experiment [8] was “Not Active” throughout. For the same compound, the Ki entry in experiment [4], in experiment [7] and in experiment [8] was “Not Active” throughout.
In the case of `C[C@]12CCC(=O)C[C@@H]1CC[C@@H]1[C@@H]2CC[C@]2(C)[C@@H](O)CC[C@@H]12` [STANOLONE], the IC50 entry in experiment [1], in experiment [2], in experiment [3], in experiment [4], in experiment [5] and in experiment [6] was “Not Active” in each case. Moreover, the IC50 result in experiment [7] and in experiment [8] was “Not Active” in each case. Further, the Ki result in experiment [4], in experiment [7] and in experiment [8] was “Not Active” each time.
`Cc1cn([C@H]2C=C[C@@H](CO)O2)c(=O)[nH]c1=O` [STAVUDINE]: the IC50 entry in experiment [1], in experiment [2], in experiment [3], in experiment [4], in experiment [5] and in experiment [6] was “Not Active” each time. The IC50 entry in experiment [7] and in experiment [8] was “Not Active” throughout. For the same compound, the Ki result in experiment [4], in experiment [7] and in experiment [8] was “Not Active” in each case.
For `CC1(C)[C@H](C(=O)O)N2C(=O)C[C@H]2S1(=O)=O` [SULBACTAM], the IC50 entry in experiment [1], in experiment [2], in experiment [3], in experiment [4], in experiment [5] and in experiment [6] was “Not Active” in each case. Besides, the IC50 entry in experiment [7] and in experiment [8] was “Not Active” in each case. Moreover, the Ki entry in experiment [4], in experiment [7] and in experiment [8] was “Not Active” throughout.
For `Cc1ccnc(NS(=O)(=O)c2ccc(N)cc2)n1` [SULFAMERAZINE], the IC50 entry in experiment [1], in experiment [2], in experiment [3], in experiment [4], in experiment [5] and in experiment [6] was “Not Active” in each case. The IC50 entry in experiment [7] and in experiment [8] was “Not Active” each time. The Ki result in experiment [4], in experiment [7] and in experiment [8] was “Not Active” in each case.
On to `Cc1nnc(NS(=O)(=O)c2ccc(N)cc2)s1` [SULFAMETHIZOLE], for which the IC50 entry in experiment [1], in experiment [2], in experiment [3], in experiment [4], in experiment [5] and in experiment [6] was “Not Active” throughout. Moreover, the IC50 result in experiment [7] and in experiment [8] was “Not Active” each time. Further, the Ki entry in experiment [4], in experiment [7] and in experiment [8] was “Not Active” each time.
`O=C(O)c1cc(/N=N/c2ccc(S(=O)(=O)Nc3ccccn3)cc2)ccc1O` [SULFASALAZINE]: the IC50 entry in experiment [1] was “Not Active”; in experiment [2] (read-out: IC50) it was 28.8 µM; in experiment [3], “Not Active”; in experiment [4], “Not Active”; in experiment [5] it was “Not Active”; in experiment [6], “Not Active”. Also, the IC50 result in experiment [7] and in experiment [8] was “Not Active” throughout. For the same compound, the Ki entry in experiment [4], in experiment [7] and in experiment [8] was “Not Active” each time.
In the case of `CCN1CCCC1CNC(=O)c1cc(S(N)(=O)=O)ccc1OC` (centres undefined) [SULPIRIDE], the IC50 entry in experiment [1], in experiment [2], in experiment [3], in experiment [4], in experiment [5] and in experiment [6] was “Not Active” each time. For the same compound, the IC50 entry in experiment [7] and in experiment [8] was “Not Active” throughout. Moreover, the Ki result in experiment [4], in experiment [7] and in experiment [8] was “Not Active” throughout.
Regarding `O=C(OC[C@H]1O[C@@H](OC(=O)c2cc(O)c(O)c(OC(=O)c3cc(O)c(O)c(O)c3)c2)[C@H](OC(=O)c2cc(O)c(O)c(OC(=O)c3cc(O)c(O)c(O)c3)c2)[C@@H](OC(=O)c2cc(O)c(O)c(OC(=O)c3cc(O)c(O)c(O)c3)c2)[C@@H]1OC(=O)c1cc(O)c(O)c(OC(=O)c2cc(O)c(O)c(O)c2)c1)c1cc(O)c(O)c(OC(=O)c2cc(O)c(O)c(O)c2)c1` [TANNIC ACID], the IC50 entry in experiment [1], in experiment [2], in experiment [3], in experiment [4], in experiment [5] and in experiment [6] was “Not Active” each time. In addition, the IC50 entry in experiment [7] and in experiment [8] was “Not Active” in each case. Also, the Ki result in experiment [4], in experiment [7] and in experiment [8] was “Not Active” each time.
Turning to `C#C[C@]1(O)CC[C@H]2[C@@H]3[C@H](C)CC4=C(CCC(=O)C4)[C@H]3CC[C@@]21C` [TIBOLONE], the IC50 result in experiment [1], in experiment [2], in experiment [3], in experiment [4], in experiment [5] and in experiment [6] was “Not Active” each time. The IC50 result in experiment [7] and in experiment [8] was “Not Active” throughout. Further, the Ki entry in experiment [4], in experiment [7] and in experiment [8] was “Not Active” throughout.
As for `Cc1cccc(C)c1NC(=O)C(C)N` (centres undefined) [TOCAINIDE], the IC50 entry in experiment [1], in experiment [2], in experiment [3], in experiment [4], in experiment [5] and in experiment [6] was “Not Active” throughout. Further, the IC50 result in experiment [7] and in experiment [8] was “Not Active” throughout. For the same compound, the Ki entry in experiment [4], in experiment [7] and in experiment [8] was “Not Active” each time.
Regarding `Cc1ccc(S(=O)(=O)NC(=O)NN2CCCCCC2)cc1` [TOLAZAMIDE], the IC50 entry in experiment [1], in experiment [2], in experiment [3], in experiment [4], in experiment [5] and in experiment [6] was “Not Active” throughout. Besides, the IC50 result in experiment [7] and in experiment [8] was “Not Active” throughout. In addition, the Ki result in experiment [4], in experiment [7] and in experiment [8] was “Not Active” throughout.
